Results: patent publication US20220015355A1, “NOVEL CARRIER FLUIDS FOR LIQUID FUNGAL SPORE FORMULATIONS” (priority 2018, published 2022)
Like-named read-outs stand apart in the source and are kept apart here.

How the values were obtained:
[1] = tested on: P. lilacinum strain 251 spores; assay: spore viability (germination rate on agar) of P. lilacinum spores in carrier fluid after storage at 30° C.; assay type: cell-based, Purpureocillium lilacinum
Experimental: (§1) 3 g of P. lilacinum strain 251 pure spore powder were transferred into a formulation vessel (IKA Type DT-20 mixing vessel with dispersion tool for Ultra Turrax) using a sterile spoon. 12 mL of fluid were added into the respective formulation vessel and dispersed using ultra turrax tube drive control for 1 min at 3000 rpm; change direction after 30 sec. After this 2.8 mL were transferred in four sample bottles (Wheaton Serum vial, Type I) leaving little headspace and closed tight using crimpneck caps (Macherey—Nagel type N 13) Afterwards all sample bottles were transferred to an incubator set at 30° C. and stored for a given time.
(§2) In regular intervals a sample was retrieved from the storage location and analyzed for spore viability. Therefore the original samples were thoroughly homogenized. Aliquots of 0.25 g or […] of each sample are transferred into 50 mL falcon tubes. The tubes were filled up to 25 g using a sterile aqueous solution containing 2% Tween 80 and homogenized by vortexing to achieve the first dilution step (1:100 dilution). This dilution is used for further dilution and spotting on agar.
(§3) For evaluation of spore germination rate prepare a 1:30000 dilution based on the 1:100 dilution achieved by multiple automated dilution (pipetting robot, 96 well plate). Afterwards 12×12 cm agar plates are taken and spotted with 10 times […] of each sample using an automated 12-Channel pipet. Wait until liquid is soaked up by agar and transfer agar plate to an incubator and incubate at 25° C. for 17 hours. Open the plate and place it under the microscope. Randomly choose one area per spot and record the number of germinated and non-germinated spores that are within the designated field. At least 200 spores per sample need to be evaluated. If needed count more than one field per spot.

[2] = tested on: Isaria fumosorosea spores; assay: spore viability of Isaria fumosorosea spores in carrier fluid after storage at 30° C., Method 1 (germination on agar); assay type: cell-based
Experimental: as §1, with “Method 1: 1.5 g” for “3 g”, “of Isaria fumosorosea” for “of P. lilacinum strain 251”, “spoon. 13.5” for “spoon. 12”
as §2
For evaluation of spore germination rate a 1:15000 dilution based on the 1:100 dilution achieved by multiple automated dilution (pipetting robot, 96 well plate) was prepared. Afterwards 12×12 cm agar plates were taken and spotted with 10 times 5 μL of each sample using an automated 12-Channel pipet. After all liquid is soaked up by agar the agar plates were incubated at 23° C. for 16 hours.

[3] = tested on: Isaria fumosorosea spores; assay: spore viability of Isaria fumosorosea spores in carrier fluid after storage, Method 2 (flow cytometry); assay type: cell-based
Experimental: Method 2: 0.5 g of Isaria fumosoresea pure spore powder were transferred into an Erlenmeyer flask using a sterile spoon. 24.5 mL of fluid were dispersed using Ultra-Turrax (IKA; Type T 25 D) for 1 min at 3,000 rpm. After this, 2.0 mL were transferred in 20 sample bottles (Wheaton Serum vial, Type I) leaving little headspace and closed tight using crimpneck caps (Macherey—Nagel type N 13). Afterwards all sample bottles were transferred to an incubator set at 30° C. and stored for a given time.
In regular intervals a sample was retrieved from the storage location and analyzed for spore viability. For this purpose, the original samples were thoroughly homogenized. Aliquots of 0.5 g of each sample were transferred into 100 mL-Erlenmeyer flask. The flasks were filled up to 50 g using a sterile aqueous solution containing 0.1% Break Thru® 5240 (Evonik, Industries) and homogenized on a magnetic stirrer (Thermo Fisher Scientific: Cimarec™) at least for 15 min with 750 rpm to achieve the first dilution step (1:100 dilution). This dilution was used for further dilution.
Not all samples mixed well or mixed at all in 0.1% Break Thru 5240. For these samples, 500 μL Neo-wett (Kwizda Agro GmbH) and/or a small amount (knife tip) Metaupon®-OMT (LEUNA Tenside GmbH) were also added to the aqueous solution.
After homogenization 1 mL were transferred into a 1.5 mL tube and were centrifuged for 15 min at 14,000 rpm (Thermo Fisher Scientific, Type Megafuge 8R). The supernatant (=upper phase) was discarded by using a pipette. The tubes were filled up to 1 mL using a sterile aqueous solution containing 0.1% Neo-wett and homogenized by vortexing.
To assess fungal viability, a method based on flow cytometry was used.

[4] = tested on: Beauveria Bassiana spores; assay: spore viability (germination rate on agar) of Beauveria bassiana spores in carrier fluid after storage at 30° C.; assay type: cell-based
Experimental: as §1, with “1.5 g” for “3 g”, “of Beauveria Bassiana” for “of P. lilacinum strain 251”, “spoon. 13.5” for “spoon. 12”
as §2
as §3, with “1:15000” for “1:30000”, “20°” for “25°”

[5] = tested on: Penicillium bilaii (ATCC 20851) spores; assay: spore viability (germination rate on agar) of Penicillium bilaii spores in carrier fluid after storage at 30° C.; assay type: cell-based
Experimental: as §1, with “1.5 g” for “3 g”, “of Penicillium bilaii (ATCC 20851)” for “of P. lilacinum strain 251”, “spoon. 13.5” for “spoon. 12”
as §2
as §3, with “1:15000” for “1:30000”, “20°” for “25°”

[6] = P. lilacinum strain 251 in the liquid, day 1
[7] = I. fumosorosea, Method 1, day 1
[8] = Method 1, storage at 30° C., 27 d
[9] = Method 1, storage at 30° C., 210 d

Compound: COC(C)COC(C)COC(C)CO (stereo not drawn) [Dowanol TPM, Tripropylene Glycol monomethyl ether]
- spore viability [%] at day 1 [1, 6]: 85.4%
- spore viability [%] after 2 w (12-15 d) ([1]; storage at 30° C., 12-15 d): 94.3%
- spore viability [%] after 1 m (27-28 d) ([1]; storage at 30° C., 27-28 d): 95.6%
- spore viability [%] after 2 m (51-55 d) ([1]; storage at 30° C., 51-55 d): 84.5%
- spore viability [%] at day 1 [2, 7]: 88.0%
- spore viability [%] after 1 m (27 d) [2, 8]: 65.4%
- spore viability [%] after 7 m (210 d) [2, 9]: 52.6%
- spore viability [%] at day 1 ([3]; I. fumosorosea, Method 2, day 1): 82.0%
- spore viability [%] after 1 m (27 d) ([3]; Method 2, storage at 30° C., 27 d): 59.0%
- spore viability [%] at day 1 ([4]; Beauveria bassiana, day 1): 63.9%
- spore viability [%] after 2 w (14 d) ([4]; storage at 30° C., 14 d): 19.0%
- spore viability [%] after 5 w (35 d) ([4]; storage at 30° C., 35 d): 15.5%
- spore viability [%] initial (1-2 d) ([5]; Penicillium bilaii, 1-2 d): 67.2%
- spore viability [%] 6 w@30° C. (41-43 d) ([5]; storage at 30° C., 41-43 d): 7.6%
- spore viability [%] 3 m@30° C. (83-85 d) ([5]; storage at 30° C., 83-85 d): 2.8%

Compound: Polyethyleneglycol-200 monooleate [Radiasurf 7402]
- spore viability [%] after 1 m (27-28 d) [1]: 64.8%
- spore viability [%] after 2 m (51-55 d) [1]: 34.7%
- spore viability [%] after 2 w (12-15 d) [1]: 83.6%
- spore viability [%] at day 1 [1]: 96.7%
- spore viability [%] after 1 m (27 d) [2]: 11.6%
- spore viability [%] after 7 m (210 d) [2]: 1.1%
- spore viability [%] at day 1 [2]: 92.5%
- spore viability [%] after 1 m (27 d) [3]: 15.8%
- spore viability [%] after 2 w (~14 d) [3]: 20.5%
- spore viability [%] at day 1 [3]: 89.9%

Compound: Polyethyleneglycol-400 monooleate [Radiasurf 7403]
- spore viability [%] after 1 m (27-28 d) [1]: 98.9%
- spore viability [%] after 2 m (51-55 d) [1]: 93.7%
- spore viability [%] after 2 w (12-15 d) [1]: 98.3%
- spore viability [%] after 7 m (210 d) [1]: 78.3%
- spore viability [%] at day 1 [1]: 98.6%
- spore viability [%] after 1 m (27 d) [2]: 76.2%
- spore viability [%] at day 1 [2]: 94.0%
- spore viability [%] after 1 m (27 d) [3]: 92.0%
- spore viability [%] after 2 w (~14 d) [3]: 86.0%
- spore viability [%] at day 1 [3]: 89.0%
- spore viability [%] after 2 w (14 d) [4]: 77.3%
- spore viability [%] after 5 w (35 d) [4]: 72.3%
- spore viability [%] at day 1 [4]: 81.4%
- spore viability after storage for 3w or longer at 30° C. [4]: ≥ 50%
- spore viability [%] 3 m@30° C. (83-85 d) [5]: 61.8%
- spore viability [%] 6 w@30° C. (41-43 d) [5]: 66.8%
- spore viability [%] initial (1-2 d) [5]: 78.1%

Compound: Polyethyleneglycol-400 dioleate [Radiasurf 7442]
- spore viability [%] after 1 m (27-28 d) [1]: 98.2%
- spore viability [%] after 2 m (51-55 d) [1]: 96.8%
- spore viability [%] after 2 w (12-15 d) [1]: 96.5%
- spore viability [%] after 7 m (210 d) [1]: 88.3%
- spore viability [%] at day 1 [1]: 98.7%
- spore viability [%] after 1 m (27 d) [2]: 72.1%
- spore viability [%] at day 1 [2]: 89.4%
- spore viability [%] after 1 m (27 d) [3]: 66.3%
- spore viability [%] after 2 w (~14 d) [3]: 69.6%
- spore viability [%] at day 1 [3]: 87.4%
- spore viability [%] after 3 w (21 d) [4]: 33.2%
- spore viability [%] at day 1 [4]: 85.9%
- spore viability [%] 3 m@30° C. (83-85 d) [5]: 76.5%
- spore viability [%] 6 w@30° C. (41-43 d) [5]: 91%
- spore viability [%] initial (1-2 d) [5]: 96.7%

Compound: CCCCOCCOCCO [Butylcarbitol, diethylenglycol monobutylether, reference compound]
- spore viability [%] at day 1 [1, 6]: 92.7%
- spore viability [%] after 2 w (12-15 d) ([1]; storage at 30° C., 12-15 d): 62.1%
- spore viability [%] after 1 m (27-28 d) ([1]; storage at 30° C., 27-28 d): 10.8%
- spore viability [%] after 2 m (51-55 d) ([1]; storage at 30° C., 51-55 d): 3.2%
- spore viability [%] after 7 m (210 d) ([1]; storage at 30° C., 210 d): 0.6%
- decline in spore viability at day 1 and after storage ([1]; text summary of Table I, fluids not within the scope of the invention): steep decline in spore viability
- spore viability [%] at day 1 [2, 7]: 19.1%
- spore viability [%] after 1 m (27 d) [2, 8]: 0.5%
- spore viability [%] after 7 m (210 d) [2, 9]: 2.4%
- spore viability [%] at day 1 ([4]; Beauveria bassiana, day 1): 53.3%
- decline in spore viability after storage under given conditions ([4]; Table III, fluids not within the scope of the invention): steep decline in spore viability
- spore viability [%] after 5 w (35 d) ([4]; storage at 30° C., 35 d): 0.8%
